In the NIST ThermoML archive (doi:10.1021/je034279l):
± gives the expanded uncertainty stated by the source.

Key:
[1] = 298.15 K; for surface tension liquid-gas: Pendant drop shape; for mass density: 101.33 kPa, Liquid
[2] = xn = mol fraction of the nth substance listed; conditions: 298.15 K; for surface tension liquid-gas: Pendant drop shape; for excess molar volume: 101 kPa, Liquid

## Cc1ccccc1C [1,2-dimethylbenzene]
[1]
  surface tension liquid-gas: 29.35 ± 0.39 mN/m
  mass density: 875.92 ± 0.42 kg/m3

## Cc1ccccc1C [1,2-dimethylbenzene] + CC(C)OC(C)C
[2]; x2 = 0.1022
  surface tension liquid-gas: 27.21 ± 0.37 mN/m
[2]; x2 = 0.201
  surface tension liquid-gas: 25.55 ± 0.36 mN/m
[2]; x2 = 0.3018
  surface tension liquid-gas: 24.17 ± 0.34 mN/m
[2]; x2 = 0.4037
  surface tension liquid-gas: 23.01 ± 0.33 mN/m
[2]; x2 = 0.4997
  surface tension liquid-gas: 22 ± 0.32 mN/m
[2]; x2 = 0.5998
  surface tension liquid-gas: 21.03 ± 0.31 mN/m
[2]; x2 = 0.7013
  surface tension liquid-gas: 20 ± 0.3 mN/m
[2]; x2 = 0.7987
  surface tension liquid-gas: 19.15 ± 0.29 mN/m
[2]; x2 = 0.8987
  surface tension liquid-gas: 18.08 ± 0.28 mN/m
[2]; x2 = 0.0506
  excess molar volume: -1.77e-07 ± 2.1e-08 m3/mol
[2]; x2 = 0.0997
  excess molar volume: -3.15e-07 ± 2.2e-08 m3/mol
[2]; x2 = 0.1501
  excess molar volume: -4.49e-07 ± 2.3e-08 m3/mol
[2]; x2 = 0.2003
  excess molar volume: -5.74e-07 ± 2.3e-08 m3/mol
[2]; x2 = 0.2503
  excess molar volume: -6.91e-07 ± 2.4e-08 m3/mol
[2]; x2 = 0.3003
  excess molar volume: -7.82e-07 ± 2.5e-08 m3/mol
[2]; x2 = 0.35
  excess molar volume: -8.39e-07 ± 2.5e-08 m3/mol
[2]; x2 = 0.4004
  excess molar volume: -8.83e-07 ± 2.5e-08 m3/mol
[2]; x2 = 0.4497
  excess molar volume: -9.22e-07 ± 2.6e-08 m3/mol
[2]; x2 = 0.505
  excess molar volume: -9.36e-07 ± 2.6e-08 m3/mol
[2]; x2 = 0.5505
  excess molar volume: -9.48e-07 ± 2.6e-08 m3/mol
[2]; x2 = 0.6001
  excess molar volume: -9.1e-07 ± 2.5e-08 m3/mol
[2]; x2 = 0.6509
  excess molar volume: -8.82e-07 ± 2.5e-08 m3/mol
[2]; x2 = 0.7
  excess molar volume: -8.11e-07 ± 2.5e-08 m3/mol
[2]; x2 = 0.7502
  excess molar volume: -7.47e-07 ± 2.4e-08 m3/mol
[2]; x2 = 0.7999
  excess molar volume: -6.31e-07 ± 2.4e-08 m3/mol
[2]; x2 = 0.8502
  excess molar volume: -5.11e-07 ± 2.3e-08 m3/mol
[2]; x2 = 0.8997
  excess molar volume: -3.69e-07 ± 2.2e-08 m3/mol
[2]; x2 = 0.9493
  excess molar volume: -2.1e-07 ± 2.1e-08 m3/mol

## Cc1ccccc1C [1,2-dimethylbenzene] + COC(C)(C)C
[2]; x2 = 0.0997
  surface tension liquid-gas: 27.9 ± 0.38 mN/m
[2]; x2 = 0.1996
  surface tension liquid-gas: 26.62 ± 0.37 mN/m
[2]; x2 = 0.3012
  surface tension liquid-gas: 25.28 ± 0.35 mN/m
[2]; x2 = 0.4008
  surface tension liquid-gas: 24.14 ± 0.34 mN/m
[2]; x2 = 0.4997
  surface tension liquid-gas: 23.12 ± 0.33 mN/m
[2]; x2 = 0.6012
  surface tension liquid-gas: 22.17 ± 0.32 mN/m
[2]; x2 = 0.7002
  surface tension liquid-gas: 21.3 ± 0.31 mN/m
[2]; x2 = 0.8
  surface tension liquid-gas: 20.57 ± 0.31 mN/m
[2]; x2 = 0.8999
  surface tension liquid-gas: 19.78 ± 0.3 mN/m

## Cc1cccc(C)c1 [1,3-dimethylbenzene]
[1]
  surface tension liquid-gas: 28.36 ± 0.39 mN/m
  mass density: 859.78 ± 0.49 kg/m3

## Cc1cccc(C)c1 [1,3-dimethylbenzene] + CC(C)OC(C)C
[2]; x2 = 0.1019
  surface tension liquid-gas: 26.38 ± 0.37 mN/m
[2]; x2 = 0.2111
  surface tension liquid-gas: 24.88 ± 0.35 mN/m
[2]; x2 = 0.3002
  surface tension liquid-gas: 23.72 ± 0.34 mN/m
  excess molar volume: -5.79e-07 ± 2.3e-08 m3/mol
[2]; x2 = 0.3999
  surface tension liquid-gas: 22.67 ± 0.33 mN/m
[2]; x2 = 0.4991
  surface tension liquid-gas: 21.73 ± 0.32 mN/m
[2]; x2 = 0.6006
  surface tension liquid-gas: 20.86 ± 0.31 mN/m
[2]; x2 = 0.6994
  surface tension liquid-gas: 19.91 ± 0.3 mN/m
[2]; x2 = 0.7998
  surface tension liquid-gas: 19.02 ± 0.29 mN/m
[2]; x2 = 0.8981
  surface tension liquid-gas: 18.12 ± 0.28 mN/m
[2]; x2 = 0.0514
  excess molar volume: -1.35e-07 ± 2.1e-08 m3/mol
[2]; x2 = 0.1002
  excess molar volume: -2.42e-07 ± 2.1e-08 m3/mol
[2]; x2 = 0.1526
  excess molar volume: -3.55e-07 ± 2.2e-08 m3/mol
[2]; x2 = 0.1997
  excess molar volume: -4.41e-07 ± 2.3e-08 m3/mol
[2]; x2 = 0.2501
  excess molar volume: -5.2e-07 ± 2.3e-08 m3/mol
[2]; x2 = 0.3498
  excess molar volume: -6.37e-07 ± 2.4e-08 m3/mol
[2]; x2 = 0.4001
  excess molar volume: -6.7e-07 ± 2.4e-08 m3/mol
[2]; x2 = 0.4516
  excess molar volume: -7.11e-07 ± 2.4e-08 m3/mol
[2]; x2 = 0.5012
  excess molar volume: -7.15e-07 ± 2.4e-08 m3/mol
[2]; x2 = 0.5509
  excess molar volume: -7.18e-07 ± 2.4e-08 m3/mol
[2]; x2 = 0.6001
  excess molar volume: -6.92e-07 ± 2.4e-08 m3/mol
[2]; x2 = 0.65
  excess molar volume: -6.71e-07 ± 2.4e-08 m3/mol
[2]; x2 = 0.6944
  excess molar volume: -6.17e-07 ± 2.4e-08 m3/mol
[2]; x2 = 0.7498
  excess molar volume: -5.58e-07 ± 2.3e-08 m3/mol
[2]; x2 = 0.8005
  excess molar volume: -4.77e-07 ± 2.3e-08 m3/mol
[2]; x2 = 0.8506
  excess molar volume: -3.93e-07 ± 2.2e-08 m3/mol
[2]; x2 = 0.8998
  excess molar volume: -2.83e-07 ± 2.2e-08 m3/mol
[2]; x2 = 0.95
  excess molar volume: -1.64e-07 ± 2.1e-08 m3/mol

## Cc1cccc(C)c1 [1,3-dimethylbenzene] + COC(C)(C)C
[2]; x2 = 0.1019
  surface tension liquid-gas: 27.13 ± 0.38 mN/m
[2]; x2 = 0.2019
  surface tension liquid-gas: 26.05 ± 0.36 mN/m
[2]; x2 = 0.3028
  surface tension liquid-gas: 24.98 ± 0.35 mN/m
[2]; x2 = 0.4014
  surface tension liquid-gas: 23.99 ± 0.34 mN/m
[2]; x2 = 0.4996
  surface tension liquid-gas: 23.01 ± 0.33 mN/m
[2]; x2 = 0.6006
  surface tension liquid-gas: 22.08 ± 0.32 mN/m
[2]; x2 = 0.7009
  surface tension liquid-gas: 21.26 ± 0.31 mN/m
[2]; x2 = 0.8001
  surface tension liquid-gas: 20.49 ± 0.31 mN/m
[2]; x2 = 0.9004
  surface tension liquid-gas: 19.76 ± 0.3 mN/m

## Cc1ccc(C)cc1 [1,4-dimethylbenzene]
[1]
  surface tension liquid-gas: 27.89 ± 0.38 mN/m
  mass density: 856.85 ± 0.46 kg/m3

## COC(C)(C)C [2-methoxy-2-methylpropane]
[1]
  surface tension liquid-gas: 19.25 ± 0.29 mN/m
  mass density: 735.48 ± 0.27 kg/m3

## COC(C)(C)C [2-methoxy-2-methylpropane] + Cc1ccc(C)cc1
[2]; x1 = 0.1008
  surface tension liquid-gas: 26.85 ± 0.37 mN/m
[2]; x1 = 0.1998
  surface tension liquid-gas: 25.81 ± 0.36 mN/m
[2]; x1 = 0.3012
  surface tension liquid-gas: 24.78 ± 0.35 mN/m
[2]; x1 = 0.4026
  surface tension liquid-gas: 23.84 ± 0.34 mN/m
[2]; x1 = 0.4997
  surface tension liquid-gas: 22.96 ± 0.33 mN/m
[2]; x1 = 0.6004
  surface tension liquid-gas: 22.08 ± 0.32 mN/m
[2]; x1 = 0.6993
  surface tension liquid-gas: 21.24 ± 0.31 mN/m
[2]; x1 = 0.8
  surface tension liquid-gas: 20.48 ± 0.3 mN/m
[2]; x1 = 0.9002
  surface tension liquid-gas: 19.78 ± 0.3 mN/m

## CC(C)OC(C)C [diisopropyl ether]
[1]
  surface tension liquid-gas: 17.31 ± 0.28 mN/m
  mass density: 718.38 ± 0.76 kg/m3

## CC(C)OC(C)C [diisopropyl ether] + Cc1ccc(C)cc1
[2]; x1 = 0.0988
  surface tension liquid-gas: 26.3 ± 0.36 mN/m
[2]; x1 = 0.2012
  surface tension liquid-gas: 24.84 ± 0.35 mN/m
[2]; x1 = 0.2991
  surface tension liquid-gas: 23.73 ± 0.34 mN/m
[2]; x1 = 0.4045
  surface tension liquid-gas: 22.68 ± 0.33 mN/m
[2]; x1 = 0.5096
  surface tension liquid-gas: 21.66 ± 0.32 mN/m
[2]; x1 = 0.603
  surface tension liquid-gas: 20.76 ± 0.31 mN/m
[2]; x1 = 0.7
  surface tension liquid-gas: 19.91 ± 0.3 mN/m
[2]; x1 = 0.7987
  surface tension liquid-gas: 19.02 ± 0.29 mN/m
[2]; x1 = 0.898
  surface tension liquid-gas: 18.18 ± 0.28 mN/m
[2]; x1 = 0.0527
  excess molar volume: -1.36e-07 ± 2.1e-08 m3/mol
[2]; x1 = 0.1016
  excess molar volume: -2.79e-07 ± 2.2e-08 m3/mol
[2]; x1 = 0.15
  excess molar volume: -3.98e-07 ± 2.2e-08 m3/mol
[2]; x1 = 0.2011
  excess molar volume: -5.1e-07 ± 2.3e-08 m3/mol
[2]; x1 = 0.2527
  excess molar volume: -5.88e-07 ± 2.4e-08 m3/mol
[2]; x1 = 0.3004
  excess molar volume: -6.58e-07 ± 2.4e-08 m3/mol
[2]; x1 = 0.3509
  excess molar volume: -7.3e-07 ± 2.4e-08 m3/mol
[2]; x1 = 0.4007
  excess molar volume: -7.61e-07 ± 2.5e-08 m3/mol
[2]; x1 = 0.4506
  excess molar volume: -7.85e-07 ± 2.5e-08 m3/mol
[2]; x1 = 0.5044
  excess molar volume: -8.02e-07 ± 2.5e-08 m3/mol
[2]; x1 = 0.5507
  excess molar volume: -7.95e-07 ± 2.5e-08 m3/mol
[2]; x1 = 0.6002
  excess molar volume: -7.87e-07 ± 2.5e-08 m3/mol
[2]; x1 = 0.6498
  excess molar volume: -7.56e-07 ± 2.5e-08 m3/mol
[2]; x1 = 0.7007
  excess molar volume: -7.02e-07 ± 2.4e-08 m3/mol
[2]; x1 = 0.7497
  excess molar volume: -6.25e-07 ± 2.4e-08 m3/mol
[2]; x1 = 0.7999
  excess molar volume: -5.37e-07 ± 2.3e-08 m3/mol
[2]; x1 = 0.8512
  excess molar volume: -4.32e-07 ± 2.3e-08 m3/mol
[2]; x1 = 0.9
  excess molar volume: -3.18e-07 ± 2.2e-08 m3/mol
[2]; x1 = 0.9507
  excess molar volume: -1.78e-07 ± 2.1e-08 m3/mol
